Reference: the kinase profiling compilation of Christmann-Franck et al. (2016)

Legend:
Assay in all cases: radiometric filter-binding kinase assay, Kinase HotSpot
Details in all cases: compound 0.5 µM; ATP 10 µM
HIPK4 (human) = HIPK4 (human) (UniProt Q8NE63)
FLT3 (human) = FLT3 (human) (UniProt P36888)
FLT1 (human) = FLT1 (human) (UniProt P17948)
WNK3 (human) = WNK3 (human) (UniProt Q9BYP7)
KDR (human) = KDR (human) (UniProt P35968)
CDK9 CCNT1 (human) = CDK9 CCNT1 (human) (UniProt P50750+O60563)
GRK5 (human) = GRK5 (human) (UniProt P34947)
Sequence of GRK5 (human) (P34947 whole entry, looked up): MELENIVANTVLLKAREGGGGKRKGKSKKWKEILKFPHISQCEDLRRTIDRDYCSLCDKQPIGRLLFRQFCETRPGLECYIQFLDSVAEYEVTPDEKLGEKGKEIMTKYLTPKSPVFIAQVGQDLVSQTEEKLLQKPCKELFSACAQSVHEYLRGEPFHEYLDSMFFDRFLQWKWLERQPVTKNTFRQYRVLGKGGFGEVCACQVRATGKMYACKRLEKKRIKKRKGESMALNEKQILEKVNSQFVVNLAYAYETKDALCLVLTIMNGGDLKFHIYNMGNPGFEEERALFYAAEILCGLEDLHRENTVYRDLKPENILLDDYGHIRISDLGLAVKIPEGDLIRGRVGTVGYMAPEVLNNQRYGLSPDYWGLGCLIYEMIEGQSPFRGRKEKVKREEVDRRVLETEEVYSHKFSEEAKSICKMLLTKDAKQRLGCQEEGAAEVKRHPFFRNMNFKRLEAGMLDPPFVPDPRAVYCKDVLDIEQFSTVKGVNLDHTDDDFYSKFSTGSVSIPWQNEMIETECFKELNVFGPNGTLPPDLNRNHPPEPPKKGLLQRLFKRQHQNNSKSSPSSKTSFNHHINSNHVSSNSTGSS

STK24 (human) = STK24 (human) (UniProt Q9Y6E0)
MERTK (human) = MERTK (human) (UniProt Q12866)
KIT (human) = KIT (human) (UniProt P10721)
PIM1 (human) = PIM1 (human) (UniProt P11309)
GRK7 (human) = GRK7 (human) (UniProt Q8WTQ7)
EPHA2 (human) = EPHA2 (human) (UniProt P29317)
Sequence of EPHA2 (human) (P29317 whole entry, looked up): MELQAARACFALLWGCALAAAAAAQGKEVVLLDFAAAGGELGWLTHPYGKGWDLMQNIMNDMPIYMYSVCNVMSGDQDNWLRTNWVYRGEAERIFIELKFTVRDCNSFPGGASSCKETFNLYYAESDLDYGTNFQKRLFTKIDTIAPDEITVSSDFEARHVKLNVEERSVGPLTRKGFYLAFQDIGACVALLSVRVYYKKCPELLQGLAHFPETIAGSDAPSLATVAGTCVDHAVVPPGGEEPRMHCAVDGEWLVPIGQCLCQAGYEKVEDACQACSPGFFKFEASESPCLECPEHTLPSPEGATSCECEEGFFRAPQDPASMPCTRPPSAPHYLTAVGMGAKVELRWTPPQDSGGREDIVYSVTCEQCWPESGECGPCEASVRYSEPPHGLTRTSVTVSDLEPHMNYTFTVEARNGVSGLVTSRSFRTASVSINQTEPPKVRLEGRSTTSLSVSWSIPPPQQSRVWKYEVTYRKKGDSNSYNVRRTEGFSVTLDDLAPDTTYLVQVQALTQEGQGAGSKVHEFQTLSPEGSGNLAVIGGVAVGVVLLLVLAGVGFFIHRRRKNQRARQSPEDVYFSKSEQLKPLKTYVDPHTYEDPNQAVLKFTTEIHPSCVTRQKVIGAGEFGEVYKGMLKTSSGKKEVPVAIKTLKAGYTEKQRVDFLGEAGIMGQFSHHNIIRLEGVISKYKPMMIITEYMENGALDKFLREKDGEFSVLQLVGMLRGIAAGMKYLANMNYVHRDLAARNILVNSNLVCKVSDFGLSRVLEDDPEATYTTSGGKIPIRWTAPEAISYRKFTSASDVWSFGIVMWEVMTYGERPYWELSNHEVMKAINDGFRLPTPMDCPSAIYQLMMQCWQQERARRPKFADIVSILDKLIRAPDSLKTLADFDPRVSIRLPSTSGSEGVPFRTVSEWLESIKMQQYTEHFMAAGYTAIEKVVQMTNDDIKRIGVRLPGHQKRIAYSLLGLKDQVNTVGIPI

MYLK (human) = MYLK (human) (UniProt Q15746)
CSNK1G3 (human) = CSNK1G3 (human) (UniProt Q9Y6M4)
STK4 (human) = STK4 (human) (UniProt Q13043)
NEK2 (human) = NEK2 (human) (UniProt P51955)
CSNK2A2 (human) = CSNK2A2 (human) (UniProt P19784)
MAPKAPK5 (human) = MAPKAPK5 (human) (UniProt Q8IW41)
PRKCG (human) = PRKCG (human) (UniProt P05129)
MARK2 (human) = MARK2 (human) (UniProt Q7KZI7)
NLK (human) = NLK (human) (UniProt Q9UBE8)
CLK4 (human) = CLK4 (human) (UniProt Q9HAZ1)
PRKACA (human) = PRKACA (human) (UniProt P17612)
PRKCB2 (human) = PRKCB2 (human) (UniProt P05771)
Sequence of PRKCB2 (human) (P05771 whole entry, looked up): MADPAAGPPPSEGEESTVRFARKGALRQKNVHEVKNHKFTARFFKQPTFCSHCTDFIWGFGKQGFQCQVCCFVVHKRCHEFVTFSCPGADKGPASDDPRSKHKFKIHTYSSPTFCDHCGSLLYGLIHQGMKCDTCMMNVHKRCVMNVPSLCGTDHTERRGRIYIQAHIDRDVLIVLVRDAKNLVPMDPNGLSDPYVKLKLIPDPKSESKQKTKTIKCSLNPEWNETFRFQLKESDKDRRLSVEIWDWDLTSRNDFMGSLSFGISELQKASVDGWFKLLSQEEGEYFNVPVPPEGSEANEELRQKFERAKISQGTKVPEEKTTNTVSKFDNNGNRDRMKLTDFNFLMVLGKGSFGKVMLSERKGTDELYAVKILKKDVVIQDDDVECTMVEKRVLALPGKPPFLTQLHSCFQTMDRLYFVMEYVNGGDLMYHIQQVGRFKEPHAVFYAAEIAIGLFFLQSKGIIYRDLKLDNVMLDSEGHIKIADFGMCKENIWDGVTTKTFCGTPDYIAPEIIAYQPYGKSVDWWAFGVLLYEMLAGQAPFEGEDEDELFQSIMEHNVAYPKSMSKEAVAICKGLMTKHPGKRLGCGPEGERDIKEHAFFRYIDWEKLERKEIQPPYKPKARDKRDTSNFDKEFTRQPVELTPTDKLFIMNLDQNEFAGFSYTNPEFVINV

AURKB (human) = AURKB (human) (UniProt Q96GD4)
Sequence of AURKB (human) (Q96GD4 whole entry, looked up): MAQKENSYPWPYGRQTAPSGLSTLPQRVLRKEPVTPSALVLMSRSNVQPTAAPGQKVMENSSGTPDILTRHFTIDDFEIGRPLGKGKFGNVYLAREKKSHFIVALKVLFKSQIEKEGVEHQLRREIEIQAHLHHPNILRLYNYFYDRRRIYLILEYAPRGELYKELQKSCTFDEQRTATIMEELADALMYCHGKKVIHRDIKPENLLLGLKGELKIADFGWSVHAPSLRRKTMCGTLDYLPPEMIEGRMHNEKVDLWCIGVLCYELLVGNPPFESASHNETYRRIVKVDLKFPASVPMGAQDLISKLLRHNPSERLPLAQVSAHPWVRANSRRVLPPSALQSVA

BRSK2 (human) = BRSK2 (human) (UniProt Q8IWQ3)
HIPK3 (human) = HIPK3 (human) (UniProt Q9H422)
AKT1 (human) = AKT1 (human) (UniProt P31749)
CDK2 CCNE1 (human) = CDK2 CCNE1 (human) (UniProt P24941+P24864)
NTRK3 (human) = NTRK3 (human) (UniProt Q16288)
EPHB1 (human) = EPHB1 (human) (UniProt P54762)
CSNK1A1 (human) = CSNK1A1 (human) (UniProt P48729)
CDK1 CCNA2 (human) = CDK1 CCNA2 (human) (UniProt P06493+P20248)
TNK2 (human) = TNK2 (human) (UniProt Q07912)
Sequence of TNK2 (human) (Q07912 whole entry, looked up): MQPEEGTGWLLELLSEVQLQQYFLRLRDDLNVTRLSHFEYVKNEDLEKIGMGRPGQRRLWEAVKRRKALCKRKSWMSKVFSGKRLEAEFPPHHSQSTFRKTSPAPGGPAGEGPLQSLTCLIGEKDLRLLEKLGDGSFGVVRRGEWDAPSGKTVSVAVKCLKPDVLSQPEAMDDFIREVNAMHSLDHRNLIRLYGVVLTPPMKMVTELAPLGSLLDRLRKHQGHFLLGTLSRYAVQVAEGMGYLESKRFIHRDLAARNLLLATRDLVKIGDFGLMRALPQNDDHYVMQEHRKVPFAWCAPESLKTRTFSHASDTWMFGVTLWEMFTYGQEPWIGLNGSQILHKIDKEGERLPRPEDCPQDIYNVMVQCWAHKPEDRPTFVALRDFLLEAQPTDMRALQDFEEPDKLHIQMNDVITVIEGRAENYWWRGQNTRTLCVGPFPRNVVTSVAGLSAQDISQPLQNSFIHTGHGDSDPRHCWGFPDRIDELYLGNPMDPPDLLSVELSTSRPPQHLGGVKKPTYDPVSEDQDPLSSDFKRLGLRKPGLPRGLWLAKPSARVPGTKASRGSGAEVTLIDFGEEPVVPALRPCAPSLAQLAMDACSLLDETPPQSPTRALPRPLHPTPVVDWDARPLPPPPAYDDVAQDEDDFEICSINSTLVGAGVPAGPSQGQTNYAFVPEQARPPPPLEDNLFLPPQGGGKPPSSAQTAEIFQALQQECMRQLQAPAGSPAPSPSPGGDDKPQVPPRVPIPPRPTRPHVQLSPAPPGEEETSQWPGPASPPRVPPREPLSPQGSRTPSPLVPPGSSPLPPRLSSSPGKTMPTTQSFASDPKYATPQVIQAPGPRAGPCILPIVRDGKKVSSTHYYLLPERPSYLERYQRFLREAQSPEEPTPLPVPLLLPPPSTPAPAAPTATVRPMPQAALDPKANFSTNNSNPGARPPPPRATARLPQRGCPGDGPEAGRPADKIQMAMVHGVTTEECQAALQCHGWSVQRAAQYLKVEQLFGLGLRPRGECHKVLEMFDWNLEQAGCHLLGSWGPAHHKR

ABL2 (human) = ABL2 (human) (UniProt P42684)
ACVRL1 (human) = ACVRL1 (human) (UniProt P37023)
NUAK1 (human) = NUAK1 (human) (UniProt O60285)
ROCK2 (human) = ROCK2 (human) (UniProt O75116)
SRPK3 (human) = SRPK3 (human) (UniProt Q9UPE1)
MAPK9 (human) = MAPK9 (human) (UniProt P45984)
CSNK1E (human) = CSNK1E (human) (UniProt P49674)

Sequence of FLT1 (human) (P17948 whole entry, looked up): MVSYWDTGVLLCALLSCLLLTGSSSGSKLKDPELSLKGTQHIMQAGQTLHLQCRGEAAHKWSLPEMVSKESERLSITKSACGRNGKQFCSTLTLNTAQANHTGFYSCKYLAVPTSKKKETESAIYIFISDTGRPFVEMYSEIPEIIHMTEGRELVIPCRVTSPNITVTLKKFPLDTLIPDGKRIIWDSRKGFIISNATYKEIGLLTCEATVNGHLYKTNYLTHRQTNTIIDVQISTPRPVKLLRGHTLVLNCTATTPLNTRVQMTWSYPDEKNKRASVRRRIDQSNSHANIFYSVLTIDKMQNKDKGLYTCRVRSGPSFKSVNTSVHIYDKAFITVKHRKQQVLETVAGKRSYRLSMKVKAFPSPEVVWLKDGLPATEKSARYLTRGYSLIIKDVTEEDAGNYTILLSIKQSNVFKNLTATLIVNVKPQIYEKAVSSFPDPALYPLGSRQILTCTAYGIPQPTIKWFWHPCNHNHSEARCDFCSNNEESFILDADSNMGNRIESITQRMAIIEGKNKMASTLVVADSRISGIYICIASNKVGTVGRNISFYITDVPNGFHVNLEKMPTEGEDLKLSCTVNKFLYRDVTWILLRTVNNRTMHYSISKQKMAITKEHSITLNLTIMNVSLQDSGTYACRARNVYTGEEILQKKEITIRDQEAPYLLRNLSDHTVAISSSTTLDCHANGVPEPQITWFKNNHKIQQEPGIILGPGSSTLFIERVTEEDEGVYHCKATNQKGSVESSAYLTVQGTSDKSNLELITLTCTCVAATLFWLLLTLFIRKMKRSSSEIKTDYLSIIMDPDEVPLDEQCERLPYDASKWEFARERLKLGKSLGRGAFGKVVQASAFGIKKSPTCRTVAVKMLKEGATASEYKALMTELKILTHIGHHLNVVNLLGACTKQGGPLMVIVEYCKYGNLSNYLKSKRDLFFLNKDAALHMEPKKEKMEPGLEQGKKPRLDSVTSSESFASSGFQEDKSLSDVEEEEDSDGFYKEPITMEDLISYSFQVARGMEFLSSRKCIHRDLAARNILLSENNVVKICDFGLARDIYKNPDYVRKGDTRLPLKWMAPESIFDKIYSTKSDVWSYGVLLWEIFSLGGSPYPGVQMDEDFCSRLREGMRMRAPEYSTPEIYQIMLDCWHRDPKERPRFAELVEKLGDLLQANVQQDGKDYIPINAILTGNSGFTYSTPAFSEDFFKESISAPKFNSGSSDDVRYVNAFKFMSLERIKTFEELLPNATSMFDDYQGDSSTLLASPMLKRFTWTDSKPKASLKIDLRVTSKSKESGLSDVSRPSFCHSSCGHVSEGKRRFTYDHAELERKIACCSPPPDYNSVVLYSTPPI

N#CC(C#N)=C(N)/C(C#N)=C/c1ccc(O)cc1
residual activity (HIPK4 (human)): 99.7%
residual activity (FLT3 (human)): 92.2%
residual activity (FLT1 (human)): 90.7%
residual activity (WNK3 (human)): 99.8%
residual activity (KDR (human)): 97.2%
residual activity (CDK9 CCNT1 (human)): 83.9%
residual activity (GRK5 (human)): 113%
residual activity (STK24 (human)): 103%
residual activity (MERTK (human)): 93.5%
residual activity (KIT (human)): 92.4%
residual activity (PIM1 (human)): 103%
residual activity (GRK7 (human)): 104%
residual activity (EPHA2 (human)): 100%
residual activity (MYLK (human)): 101%
residual activity (CSNK1G3 (human)): 100%
residual activity (STK4 (human)): 99.1%
residual activity (NEK2 (human)): 102%
residual activity (CSNK2A2 (human)): 102%
residual activity (MAPKAPK5 (human)): 94.2%
residual activity (PRKCG (human)): 105%
residual activity (MARK2 (human)): 91.3%
residual activity (NLK (human)): 96.7%
residual activity (CLK4 (human)): 101%
residual activity (PRKACA (human)): 100%
residual activity (PRKCB2 (human)): 111%
residual activity (AURKB (human)): 91%
residual activity (BRSK2 (human)): 101%
residual activity (HIPK3 (human)): 102%
residual activity (AKT1 (human)): 99.2%
residual activity (CDK2 CCNE1 (human)): 97%
residual activity (NTRK3 (human)): 95.5%
residual activity (EPHB1 (human)): 88.3%
residual activity (CSNK1A1 (human)): 85%
residual activity (CDK1 CCNA2 (human)): 90.6%
residual activity (TNK2 (human)): 98.1%
residual activity (ABL2 (human)): 94.9%
residual activity (ACVRL1 (human)): 88.8%
residual activity (NUAK1 (human)): 92.3%
residual activity (ROCK2 (human)): 98.3%
residual activity (SRPK3 (human)): 96.4%
residual activity (MAPK9 (human)): 105%
residual activity (CSNK1E (human)): 92.4%

N#C/C(=C(/N)Sc1ccc(N)cc1)c1ccccc1C(F)(F)F
residual activity (HIPK4 (human)): 100%
residual activity (FLT3 (human)): 107%
residual activity (FLT1 (human)): 85.4%
residual activity (WNK3 (human)): 94.9%
residual activity (KDR (human)): 94.4%
residual activity (CDK9 CCNT1 (human)): 97.7%
residual activity (GRK5 (human)): 102%
residual activity (STK24 (human)): 89.3%
residual activity (MERTK (human)): 80.7%
residual activity (KIT (human)): 91.8%
residual activity (PIM1 (human)): 99.7%
residual activity (GRK7 (human)): 113%
residual activity (EPHA2 (human)): 104%
residual activity (MYLK (human)): 94.9%
residual activity (CSNK1G3 (human)): 103%
residual activity (STK4 (human)): 89.7%
residual activity (NEK2 (human)): 94.9%
residual activity (CSNK2A2 (human)): 86%
residual activity (MAPKAPK5 (human)): 89.9%
residual activity (PRKCG (human)): 99.5%
residual activity (MARK2 (human)): 124%
residual activity (NLK (human)): 108%
residual activity (CLK4 (human)): 93.4%
residual activity (PRKACA (human)): 109%
residual activity (PRKCB2 (human)): 103%
residual activity (AURKB (human)): 99.8%
residual activity (BRSK2 (human)): 102%
residual activity (HIPK3 (human)): 114%
residual activity (AKT1 (human)): 101%
residual activity (CDK2 CCNE1 (human)): 95.4%
residual activity (NTRK3 (human)): 101%
residual activity (EPHB1 (human)): 98.8%
residual activity (CSNK1A1 (human)): 82.9%
residual activity (CDK1 CCNA2 (human)): 91.2%
residual activity (TNK2 (human)): 100%
residual activity (ABL2 (human)): 101%
residual activity (ACVRL1 (human)): 106%
residual activity (NUAK1 (human)): 95.9%
residual activity (ROCK2 (human)): 100%
residual activity (SRPK3 (human)): 96.3%
residual activity (MAPK9 (human)): 110%
residual activity (CSNK1E (human)): 95.9%

Cc1ccc(S(=O)(=O)/C=C/C#N)cc1
residual activity (HIPK4 (human)): 108%
residual activity (FLT3 (human)): 100%
residual activity (FLT1 (human)): 92.8%
residual activity (WNK3 (human)): 110%
residual activity (KDR (human)): 94.7%
residual activity (CDK9 CCNT1 (human)): 98.2%
residual activity (GRK5 (human)): 105%
residual activity (STK24 (human)): 89.3%
residual activity (MERTK (human)): 96.4%
residual activity (KIT (human)): 102%
residual activity (PIM1 (human)): 101%
residual activity (GRK7 (human)): 92.6%
residual activity (EPHA2 (human)): 105%
residual activity (MYLK (human)): 93.9%
residual activity (CSNK1G3 (human)): 88.3%
residual activity (STK4 (human)): 94.7%
residual activity (NEK2 (human)): 101%
residual activity (CSNK2A2 (human)): 97.9%
residual activity (MAPKAPK5 (human)): 88.9%
residual activity (PRKCG (human)): 92.9%
residual activity (MARK2 (human)): 84%
residual activity (NLK (human)): 99.2%
residual activity (CLK4 (human)): 89.7%
residual activity (PRKACA (human)): 100%
residual activity (PRKCB2 (human)): 104%
residual activity (AURKB (human)): 92.3%
residual activity (BRSK2 (human)): 99.4%
residual activity (HIPK3 (human)): 100%
residual activity (AKT1 (human)): 112%
residual activity (CDK2 CCNE1 (human)): 89.2%
residual activity (NTRK3 (human)): 95.5%
residual activity (EPHB1 (human)): 100%
residual activity (CSNK1A1 (human)): 95.6%
residual activity (CDK1 CCNA2 (human)): 96.7%
residual activity (TNK2 (human)): 94.9%
residual activity (ABL2 (human)): 104%
residual activity (ACVRL1 (human)): 100%
residual activity (NUAK1 (human)): 101%
residual activity (ROCK2 (human)): 99.1%
residual activity (SRPK3 (human)): 104%
residual activity (MAPK9 (human)): 102%
residual activity (CSNK1E (human)): 107%
